Where “and” joins values, the source holds several entries; their conditions need not be identical. Equal values may be shown once. Inconclusive results and toxic doses are left out. Rule for the calls: active = survival T/C of 150% or more; inactive = T/C below 125% in these data.
System: BDF1 mice, P388 leukemia ip, median survival T/C
Assay: NCI In Vivo Anticancer Drug Screen. Data for tumor model P388 Leukemia (intraperitoneal) in B6D2F1 (BDF1) mice
Settings: endpoint: median survival time, higher = longer survival
Method in brief: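 Vehicle-dosed animals serve as the reference; survival of compound-dosed, tumour-implanted mice is divided by it.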

[1] = dose: 25.0 mg/kg/injection, schedule: Q01DX009 (ip), vehicle: saline with Tween-80
[2] = dose: 100.0 mg/kg/injection, schedule: Q04DX003 (ip), vehicle: saline with Tween-80
[3] = dose: 100.0 mg/kg/injection, schedule: Q04DX003 (ip), vehicle: saline
[4] = dose: 150.0 mg/kg/injection, schedule: Q04DX003 (ip), vehicle: saline
[5] = dose: 100.0 mg/kg/injection, schedule: Q01DX009 (ip), vehicle: saline with Tween-80
[6] = dose: 200.0 mg/kg/injection, schedule: Q01DX009 (ip), vehicle: saline with Tween-80
[7] = dose: 200.0 mg/kg/injection, schedule: Q04DX003 (ip), vehicle: saline with Tween-80
[8] = dose: 400.0 mg/kg/injection, schedule: Q04DX003 (ip), vehicle: saline with Tween-80
[9] = dose: 50.0 mg/kg/injection, schedule: Q01DX009 (ip), vehicle: saline
[10] = dose: 75.0 mg/kg/injection, schedule: Q01DX009 (ip), vehicle: saline
[11] = dose: 100.0 mg/kg/injection, schedule: Q01DX009 (ip), vehicle: saline
[12] = dose: 150.0 mg/kg/injection, schedule: Q01DX009 (ip), vehicle: saline
[13] = dose: 100.0 mg/kg/injection, schedule: Q04DX002 (ip), vehicle: saline with Tween-80
[14] = dose: 200.0 mg/kg/injection, schedule: Q04DX002 (ip), vehicle: saline with Tween-80
[15] = dose: 400.0 mg/kg/injection, schedule: Q04DX002 (ip), vehicle: saline with Tween-80
[16] = dose: 50.0 mg/kg/injection, schedule: Q01DX009 (ip), vehicle: saline with Tween-80
[17] = dose: 200.0 mg/kg/injection, schedule: Q01DX009 (ip), vehicle: saline
[18] = dose: 400.0 mg/kg/injection, schedule: Q04DX003 (ip), vehicle: saline

Measured: T/C

CN(CCCOS(C)(=O)=O)CCCOS(C)(=O)=O
active: dose: 5.0 mg/kg/injection, schedule: Q01DX010 (ip), vehicle: saline 150 % of control | dose: 10.0 mg/kg/injection, schedule: Q01DX010 (ip), vehicle: saline 196 % of control | dose: 19.0 mg/kg/injection, schedule: Q04DX003 (ip), vehicle: saline 172 % of control | [1] 263 % of control | dose: 29.0 mg/kg/injection, schedule: Q04DX003 (ip), vehicle: saline with Tween-80 209 % of control | dose: 40.0 mg/kg/injection, schedule: Q01DX010 (ip), vehicle: saline 230 % of control | dose: 66.0 mg/kg/injection, schedule: Q04DX003 (ip), vehicle: saline with Tween-80 300 % of control | [2] 300 % of control | [4] 254 % of control
inactive: dose: 2.2 mg/kg/injection, schedule: Q04DX003 (ip), vehicle: saline 104 % of control | dose: 3.4 mg/kg/injection, schedule: Q04DX003 (ip), vehicle: saline 113 % of control | dose: 80.0 mg/kg/injection, schedule: Q01DX010 (ip), vehicle: saline 107 % of control | [3] 118 % of control | dose: 150.0 mg/kg/injection, schedule: Q04DX003 (ip), vehicle: saline with Tween-80 100 % of control

O=C(NC1CCCCC1)O/N=C/c1ccccn1
inactive: dose: 100.0 mg/kg/injection, schedule: Q01DX001 (ip), vehicle: other 87 % of control | dose: 400.0 mg/kg/injection, schedule: Q01DX001 (ip), vehicle: other 91 % of control

c1ccc2c(c1)ccc1cc3c(ccc4ccccc43)cc12
inactive: [5] 120 % of control | [2] 118 % of control | [6] 112 % of control | [7] 109 % of control | [8] 109 % of control

Nc1ccc(Nc2ccncc2)cc1
inactive: dose: 50.0 mg/kg/injection, schedule: Q04DX003 (ip), vehicle: Klucel (hydroxypropylcellulose) (HPC) 100 % of control | dose: 100.0 mg/kg/injection, schedule: Q04DX003 (ip), vehicle: Klucel (hydroxypropylcellulose) (HPC) 95 % of control | dose: 200.0 mg/kg/injection, schedule: Q04DX003 (ip), vehicle: Klucel (hydroxypropylcellulose) (HPC) 90 % of control

CCCN(CCC)CCCOC(=O)c1ccc([N+](=O)[O-])cc1
inactive: dose: 50.0 mg/kg/injection, schedule: Q01DX001 (ip), vehicle: saline 100 % of control | dose: 100.0 mg/kg/injection, schedule: Q01DX001 (ip), vehicle: saline 100 % of control | dose: 200.0 mg/kg/injection, schedule: Q01DX001 (ip), vehicle: saline 100 % of control

NC(N)=N/N=C\c1c2ccccc2cc2ccccc12
active: dose: 3.13 mg/kg/injection, schedule: Q01DX009 (ip), vehicle: other 155 % of control | dose: 6.25 mg/kg/injection, schedule: Q01DX009 (ip), vehicle: other 155 % of control | dose: 12.5 mg/kg/injection, schedule: Q01DX009 (ip), vehicle: other 157 % of control

O=c1cc(N=Nc2ccc(O)cc2)[nH]c(=O)[nH]1
inactive: dose: 25.0 mg/kg/injection, schedule: Q01DX009 (ip), vehicle: water 100 % of control | dose: 50.0 mg/kg/injection, schedule: Q01DX009 (ip), vehicle: water 106 % of control | dose: 50.0 mg/kg/injection, schedule: Q04DX003 (ip), vehicle: water 104 % of control and 107 % of control | dose: 100.0 mg/kg/injection, schedule: Q01DX009 (ip), vehicle: water 106 % of control | dose: 100.0 mg/kg/injection, schedule: Q04DX003 (ip), vehicle: water 93 % of control and 98 % of control | dose: 200.0 mg/kg/injection, schedule: Q01DX009 (ip), vehicle: water 114 % of control | dose: 200.0 mg/kg/injection, schedule: Q04DX003 (ip), vehicle: water 98 % of control and 102 % of control and 117 % of control | dose: 400.0 mg/kg/injection, schedule: Q01DX009 (ip), vehicle: water 100 % of control | dose: 400.0 mg/kg/injection, schedule: Q04DX003 (ip), vehicle: water 109 % of control and 111 % of control and 117 % of control

O=C(OC(=O)c1ccc([N+](=O)[O-])cc1)c1ccc([N+](=O)[O-])cc1
inactive: dose: 100.0 mg/kg/injection, schedule: Q04DX003 (sc), vehicle: olive oil, sesame oil, peanut oil 110 % of control | dose: 200.0 mg/kg/injection, schedule: Q04DX003 (sc), vehicle: olive oil, sesame oil, peanut oil 105 % of control | dose: 400.0 mg/kg/injection, schedule: Q04DX003 (sc), vehicle: olive oil, sesame oil, peanut oil 105 % of control

O=C(O)C(O)C(O)C1[O][Sb][O]C1CO (stereo not given)
active: [9] 150 % of control | [10] 155 % of control | [11] 166 % of control | [12] 155 % of control | [4] 177 % of control | dose: 225.0 mg/kg/injection, schedule: Q01DX009 (ip), vehicle: saline 150 % of control and 183 % of control
inactive: dose: 22.0 mg/kg/injection, schedule: Q04DX003 (ip), vehicle: saline 110 % of control

N#CC1CCCCC1C1(C#N)CCCCC1Cc1ccc2ccccc2n1 (stereo not given)
inactive: [13] 96 % of control | [14] 104 % of control | [15] 107 % of control

O=C1CCSC(=O)N1SC(Cl)(Cl)Cl
inactive: dose: 12.0 mg/kg/injection, schedule: Q01DX009 (ip), vehicle: saline with Tween-80 120 % of control | [1] 110 % of control | [16] 100 % of control

Cc1cc(N(C)C)cc(C)c1/C=C\c1ccnc2ccccc12
inactive: [13] 112 % of control | [14] 107 % of control | [15] 117 % of control

CN(CCO)C1=C(N2CC2)C(=O)C(N(C)CCO)=C(N2CC2)C1=O
active: dose: 400.0 micrograms/kg/injection, schedule: Q01DX009 (ip), vehicle: saline 157 % of control | dose: 800.0 micrograms/kg/injection, schedule: Q01DX009 (ip), vehicle: saline 228 % of control
inactive: dose: 200.0 micrograms/kg/injection, schedule: Q01DX009 (ip), vehicle: saline 116 % of control

COc1ccc(NCCN(C)C)c2c(=O)c3ccccc3sc12
inactive: [16] 97 % of control | [5] 101 % of control | [6] 108 % of control

Cc1ccc([N+](=O)[O-])cc1NC(=O)Nc1ccc(S(N)(=O)=O)cc1
inactive: dose: 100.0 mg/kg/injection, schedule: Q01DX009 (ip), vehicle: Klucel (hydroxypropylcellulose) (HPC) 100 % of control | dose: 200.0 mg/kg/injection, schedule: Q01DX009 (ip), vehicle: Klucel (hydroxypropylcellulose) (HPC) 100 % of control | dose: 400.0 mg/kg/injection, schedule: Q01DX009 (ip), vehicle: Klucel (hydroxypropylcellulose) (HPC) 100 % of control

O=C(O)CSC(CC(=O)O)C(F)(F)C(F)(F)C(F)(F)F (stereo not given)
inactive: dose: 25.0 mg/kg/injection, schedule: Q01DX009 (ip), vehicle: saline 90 % of control | dose: 25.0 mg/kg/injection, schedule: Q04DX003 (ip), vehicle: saline 109 % of control | [9] 100 % of control | dose: 50.0 mg/kg/injection, schedule: Q04DX003 (ip), vehicle: saline 109 % of control | [10] 110 % of control | [11] 95 % of control and 115 % of control | [3] 109 % of control | [12] 120 % of control | [17] 120 % of control | dose: 300.0 mg/kg/injection, schedule: Q01DX009 (ip), vehicle: saline 110 % of control | [18] 122 % of control

CCOC1OCN(c2cccc(Cl)c2)CC1(C)C (stereo not given)
inactive: [16] 98 % of control | [5] 112 % of control | [6] 114 % of control

c1cn[nH]c1
inactive: dose: 4.0 mg/kg/injection, schedule: Q01DX010 (ip), vehicle: water 100 % of control | dose: 8.0 mg/kg/injection, schedule: Q01DX010 (ip), vehicle: water 90 % of control

CC1=CCCC1
inactive: [11] 118 % of control | [3] 113 % of control | [17] 118 % of control | dose: 200.0 mg/kg/injection, schedule: Q04DX003 (ip), vehicle: saline 104 % of control | dose: 400.0 mg/kg/injection, schedule: Q01DX009 (ip), vehicle: saline 118 % of control | [18] 104 % of control

COc1ccc(/C=C/C(=O)c2ccccc2)cc1
inactive: [5] 97 % of control | [2] 104 % of control | [6] 98 % of control | [7] 104 % of control | dose: 400.0 mg/kg/injection, schedule: Q01DX009 (ip), vehicle: saline with Tween-80 98 % of control | [8] 104 % of control

From PubChem BioAssay AID328 (DTP/NCI, 2004)
